Measurements published in patent US20230263712A1, “AN ORAL CARE ANTIMICROBIAL COMPOSITION, PROCESS FOR PREPARING THE SAME AND METHOD OF USE THEREOF” (ISP INVESTMENTS LLC, priority 2020, published 2023).
Read-outs that look alike come from different tables or passages of the source.

System: Streptococcus mutans UA159
Experiment: Checkerboard microplate synergy assay (MIC, Synergy Index by the Kull method)
Format: cell-based
Conditions: for HPB Qa: MIC of compound A (HPB) when used in combination with compound B: HPB concentration in the combination with the labelled compound B; for SI index (Synergy Index = Qa/QA + Qb/QB): combination of HPB (raspberry ketone) with the labelled compound B, SI <1 synergistic
Experimental: The synergistic antimicrobial effect was determined using the commonly accepted method described by Kull […]. and Mayer, R. L. 1961. Applied Microbiology, 9:538-541 Brief description of the assay: Standard checkerboard approach was used to make all the dilutions. HPB (compound A) solution was prepared in DMSO and then serially diluted using a 96-well dilution plate. Automated liquid handler was then used to stamp multiple assay plates out of this dilution plate. Each well of the assay plate was then supplemented with a predetermined concentration of the second antimicrobial (compound B). The final concentration of DMSO was kept constant across the plate for each assay, not exceeding 3% (w/w). Then, S. mutans cell suspension in Todd Hewitt Broth supplemented with yeast extract (THYEB) was added to the appropriate wells of the assay plate with the final cell density being 10^6 cfu/ml. The assay plates were incubated for 48 hours at 37° C. in the atmosphere containing 5% CO2 prior to being evaluated. The lowest concentration of each compound (or a mixture of the two compounds) to inhibit visible growth was taken as the minimum inhibitory concentration (MIC). The MIC was taken as the end point of activity. End points for the combination of compound A (HPB) and compound B were then compared to the end points for each compound being used individually.

[1] = S. mutans, THYEB, 48 hours at 37° C., 5% CO2
[2] = Streptococcus mutans, UA159, S. mutans, THYEB, 48 hours at 37° C., 5% CO2, alone, read-out: Compound B QB: MIC of compound B acting alone

N=C(NCCCCCCNC(=N)NC(=N)Nc1ccc(Cl)cc1)NC(=N)Nc1ccc(Cl)cc1.O=C(O)[C@H](O)[C@@H](O)[C@H](O)[C@H](O)CO.O=C(O)[C@H](O)[C@@H](O)[C@H](O)[C@H](O)CO [Chlorhexidine digluconate]
HPB Qa: MIC of compound A (HPB) when used in combination with compound B [1]: 4,000 ppm | Compound B QB: MIC of compound B acting alone (S. mutans, THYEB, 48 hours at 37° C., 5% CO2, alone): 1.6 ppm | Compound B Qb: MIC of compound B when used in combination with compound A (HPB) [1]: 0.4 ppm | SI index (Synergy Index = Qa/QA + Qb/QB) (S. mutans): ≤0.75

CC(=O)CCc1ccc(O)cc1 [HPB, 4-(4-hydroxyphenyl) butan-2-one]
MIC (Streptococcus mutans, UA159, S. mutans, THYEB, 48 hours at 37° C., 5% CO2, alone, read-out: HPB QA: MIC of compound A (HPB) acting alone): ≥ 8000 µg/mL

Cc1cc(O)ccc1C(C)C [Isopropyl Methylphenol (IPMP), 4-isopropyl-3-methyl phenol]
HPB Qa: MIC of compound A (HPB) when used in combination with compound B [1]: 125 ppm | Compound B Qb: MIC of compound B when used in combination with compound A (HPB) [1]: 250 ppm | SI index (Synergy Index = Qa/QA + Qb/QB) (S. mutans): ≤0.5016 | SI index (Synergy Index = Qa/QA + Qb/QB) (S. mutans, listed as IPMP): ≤ 0.5016 | MIC [2]: 500 µg/mL

CC1CCC(C(C)C)C(O)C1 (centres unmarked) [Menthol]
HPB Qa: MIC of compound A (HPB) when used in combination with compound B [1]: 4,000 ppm | Compound B Qb: MIC of compound B when used in combination with compound A (HPB) [1]: 1,000 ppm | MIC [2]: ≥ 4000 µg/mL

Cc1ccc(C(C)C)c(O)c1 [Thymol]
HPB Qa: MIC of compound A (HPB) when used in combination with compound B [1]: 4,000 ppm | Compound B Qb: MIC of compound B when used in combination with compound A (HPB) [1]: 15.6 ppm | SI index (Synergy Index = Qa/QA + Qb/QB) (S. mutans): ≤0.625 | SI index (Synergy Index = Qa/QA + Qb/QB) (S. mutans, listed as thymol): ≤ 0.625 | MIC [2]: 125 µg/mL

CC12CCC(CC1)C(C)(C)O2 [eucalyptol]
MIC (alone, even when solubilized with 2% of Pluronic F-127): > 2% | Synergy with raspberry ketone (HPB) (standard synergy assay vs S. mutans): not detected
